The results in this text go back to US12422660B2, “Microscope for imaging samples within wells of multi-well plates hold by stage and beam homogenizer for homogenizing beam” (QUIVER HOLDINGS INC., priority 2020, dated 2025).

“Also recorded” adds a separate entry of the source.

Experiment [1] deals with E18 rat hippocampal neurons. Put plainly: Optopatch pharmacology and high-throughput validation on 96-well Firefly. The class given is cell-based. Particulars: for firing rate: 1 μM, 96-well plate, alternating columns vs vehicle; for drug-induced change in neuronal spiking behavior: neurons cultured 14 days, vehicle normalized to 1. As to the method: Concentration response curves are readily measured with the Optopatch platform (FIG. 31). All compounds show large effect sizes and good repeatability on two independent plates. Each symbol represents>100 cells in one well. All the data shown were measured in a single day.
The system is also approaching readiness for high-throughput drug screening. To test system uniformity and repeatability, ML-213 is added to alternating columns in a 96-well plate (FIG. 32-FIG. 37). The change in spike rate during the ramp is readily visible in each well and is uniform across the plate (FIG. 34-35). Using one parameter, number of spikes during the ramp, the Z′ of 0.31 indicates a failed call in 1 of 73,000 wells, sufficient for screening tens of thousands of compounds for phenotypic screens in neurons. There was a small drift in time as wells were read out serially at room temperature (FIG. 36). Recent improvements in automation control software have reduced the scan time per FOV from 30 seconds to 10 seconds, which will reduce scan time artifacts. Furthermore, the microscope will have a 5× increased imaging area, reducing the number of FOVs per well to 1 and further increasing screening speed.
FIGS. 30 & 31 show pharmacology e.g., with E18 rat hippocampal neurons cultured 14 days.
FIG. 30 is radar plots showing the drug-induced change in neuronal spiking behavior along many dimensions, tabulated at right. For each parameter, the vehicle is normalized to 1 (green); drug effects in orange.
FIG. 32-FIG. 37 show high-throughput validation for screening with E18 rat hippocampal neurons cultured for 14 days.
The blue light stimulus is shown below.

The test system of experiment [2] is hiPSC-derived motor neurons. Description: Optopatch intrinsic excitability and pharmacological response, before and after compound addition. The class given is cell-based, human. Conditions: 1 μM, before vs after addition, blue light stimulus. An excerpt:
Firefly image with overlay (colored regions) of hiPSC-derived motor neurons are identified by automated analysis.
Example voltage recordings from selected cells, and the blue stimulus used to evoke firing: steps, pulse trains, and ramps are shown. […]
FIG. 21 is a raster plot where each point is an identified action potential and each row is a neuron from a single FOV.
Analysis overview: FIGS. 19-26 show the automated analysis workflow for measurements of intrinsic excitability and pharmacological response in hiPSC-derived motor neurons. Neurons are interrogated with a stimulus protocol (blue) designed to probe a broad range of spiking behaviors. All pixels capturing fluorescence from one neuron co-vary in time following that cell's unique firing pattern (FIG. 20). The temporal covariance is used to generate a weight mask for each cell (colored regions in FIG. 19); masked pixels are averaged for each frame in the movie to calculate the voltage traces. Each FOV was recorded twice, before and after addition of potassium channel opener ML213. […] From the fluorescence-time traces, each action potential in the dataset is identified (FIG. 21), and firing rate (FIG. 22), spike shape parameters (FIG. 23) and relative timings (FIG. 24 & FIG. 25) are measured as a function of stimulus. […]

For experiment [3], the system named is iPSC-derived excitatory cortical neurons (NGN2) with LOF mutation (knockout/KO). Description: Optopatch multi-dimensional analysis of disease phenotype reversal and side effects. Format: cell-based, human. Particulars: for cell behavior projected onto phenotype/side effect space: KO cells, 8 concentrations from 0.28 to 600 μM, increasing concentration; for reversal of functional phenotype (WT vs KO), radar plot: KO neurons, 30 days in culture. An excerpt: In compound screening, multidimensional data may be reduced to a few parameters that can be used to rank and select compounds to advance. In disease modeling, for example, one uses hiPSC-derived neurons from patients and healthy controls, and screens for compounds that induce the disease cells to behave like healthy cells. The dimensionality reduction is described in FIG. 27-FIG. 29.
FIG. 27-FIG. 29 show multi-dimensional analysis with iPSC-derived excitatory cortical neurons (NGN2), 30 days in culture.
FIG. 27 is Radar plot showing a select subset of parameters normalized to values for wildtype (WT) neurons. […] The difference between WT and KO traces is the functional phenotype.
FIG. 28 is a diagram illustrating phenotype reversal and “side effects.” In the ˜300-dimensional space of recorded parameters, only two of which are shown, WT wells are clustered and KO wells are clustered. The vector between these populations represents the phenotype (red). Drug effects (blue) are deconstructed into components along (phenotype reversal) and orthogonal to (side effects) the phenotype vector. An ideal drug would undo the effects of the mutation and move the well from the KO cloud to the WT cloud.
FIG. 29 is a plot showing many wells projected onto the phenotype/side effect space. WT and KO wells are well separated along the phenotype direction. Application of the two compounds (8 concentrations from 0.28 to 600 μM) from FIG. 27 have increasing effects on KO cell behavior as the concentration increases. […] The connected drug points are in order of increasing concentration, and the two lines are experimental replicates on two consecutive weeks of experiment.

Regarding `Cc1cc(C)c(NC(=O)C2CC3CCC2C3)c(C)c1` (stereo not drawn) [ML213], in experiment [1], the firing rate result is “dramatically reduces firing rate in all wells tested” and the “drug-induced change in neuronal spiking behavior” value is on record as “drive behavior in opposite directions”. Moreover, the firing rate result in experiment [1] (listed as ML-213) is given as “reduces firing”. Moreover, the “neuronal excitability / firing” value in experiment [2] was “suppresses firing; also recorded: clear reduction in neuronal excitability”.
On to `O=C1c2ccccc2C(Cc2ccncc2)(Cc2ccncc2)c2ccccc21` [XE-991], for which the “drug-induced change in neuronal spiking behavior” value in experiment [1] is given as “drive behavior in opposite directions”.
`Nc1nnc(-c2cccc(Cl)c2Cl)c(N)n1` [lamotrigine]: in experiment [3], the “cell behavior projected onto phenotype/side effect space” value was “moves behavior away from both WT and KO”; the “reversal of functional phenotype (WT vs KO), radar plot” value is recorded as “perturbed behavior but did not reverse the phenotype”.
With `Nc1ccncc1` [4-AP], in experiment [3], the “cell behavior projected onto phenotype/side effect space” value is “moves cell behavior toward and beyond WT behavior”; the “reversal of functional phenotype (WT vs KO), radar plot” value is reported as “substantially reversed the phenotype”.
